Assay results from article PMC11460631, “Inhibition of transient receptor potential vanilloid 3 channels by antimalarial hydroxychloroquine alleviates TRPV3-dependent dermatitis” (The Journal of Biological Chemistry, 2024).

How the values were obtained:
TRPV3 [1] = target: T1, TRPV3 (Homo sapiens, UniProt Q8NET8); assay: Whole-cell patch-clamp recordings of TRPV3 currents in transfected HEK293T cells; format: cell-based; conditions: 1 mM agonist, whole-cell, n = 5 cells
T1 construct: YFP or GFP; expressed in transfected cells; host or cells: HEK293T
T1 sequence (Q8NET8 1-790): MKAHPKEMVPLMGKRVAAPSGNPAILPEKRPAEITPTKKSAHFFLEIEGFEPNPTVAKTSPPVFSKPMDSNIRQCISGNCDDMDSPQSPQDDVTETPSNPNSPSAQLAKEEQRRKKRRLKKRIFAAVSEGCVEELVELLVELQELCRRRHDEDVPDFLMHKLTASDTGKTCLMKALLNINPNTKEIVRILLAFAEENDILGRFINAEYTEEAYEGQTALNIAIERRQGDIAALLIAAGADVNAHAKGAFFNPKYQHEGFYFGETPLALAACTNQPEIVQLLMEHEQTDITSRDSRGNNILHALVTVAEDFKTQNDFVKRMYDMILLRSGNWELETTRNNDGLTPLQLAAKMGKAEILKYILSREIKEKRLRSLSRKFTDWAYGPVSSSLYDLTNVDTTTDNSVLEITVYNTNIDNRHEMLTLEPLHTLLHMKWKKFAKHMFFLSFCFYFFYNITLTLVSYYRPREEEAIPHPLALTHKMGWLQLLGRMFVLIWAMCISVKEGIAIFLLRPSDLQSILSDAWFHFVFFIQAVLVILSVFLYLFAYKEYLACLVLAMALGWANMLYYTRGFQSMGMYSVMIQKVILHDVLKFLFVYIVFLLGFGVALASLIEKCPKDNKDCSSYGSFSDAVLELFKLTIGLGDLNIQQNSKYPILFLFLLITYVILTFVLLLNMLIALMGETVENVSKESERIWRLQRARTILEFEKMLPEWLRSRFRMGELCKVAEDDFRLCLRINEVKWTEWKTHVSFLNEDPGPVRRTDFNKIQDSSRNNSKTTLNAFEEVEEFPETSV
Description: (§1) HEK293T cells are cultured using Dulbecco's modified Eagle's medium containing 10% fetal bovine serum and 1% penicillin-streptomycin in a cell incubator with 5% CO2 at 37 °C. Plasmids of murine TRPV1, TRPV4, TRPM8, and human TRPV3, TRPA1 are labeled with YFP or GFP as indicators for subsequent electrophysiological recordings. Complementary DNA constructs of ion channels were transiently transfected with Lipofectamine 3000 (Invitrogen). And 12 to 18 h after transient transfection, electrophysiological recordings were performed.
(§2) Patch-clamp recordings were carried out with a HEKA EPC10 amplifier controlled by PatchMaster software (HEKA; https://www.heka.com/products/products_main.html#soft_pm) ([36]). Patch pipettes were prepared from borosilicate glass and fire-polished to the resistance of 3 to 8 MΩ by P-97 puller for whole-cell recordings. For single-channel recordings, patch pipettes were fire-polished to a higher resistance of 6 to 10 MΩ. Both bath solution and pipette solution contained 130 mM NaCl, 10 mM glucose, 0.2 mM EDTA, and 3 mM Hepes and were adjusted to pH 7.2 to 7.4 with NaOH. Whole-cell recordings and single-channel recordings were performed at ± 80 mV. The current was sampled at 10 kHz and filtered at 2.9 kHz. All recordings were performed at room temperature (25 °C). A gravity-driven system (RSC-200, Bio-Logic) with freely rotated perfusion tubes was used for the perfusion of ligands. Bath and ligand solutions were delivered through separate tubes to minimize the mixing of solutions. Patch pipette holding cells were placed in front of the perfusion tube outlet for perfusion.
All data from whole-cell recordings were analyzed in Igor Pro (WaveMetrics). IC50 values were determined by fitting the Hill equation to concentration-response relationships. Data are shown as mean ± SEM. Statistical significance between two groups was conducted with an unpaired two-tailed t test, and statistical significance among multiple groups was conducted with one-way ANOVA using Dunnett’s multiple comparisons test or Tukey's post hoc test. Differences were regarded as statistically significant with ∗, p < 0.05; ∗∗, p < 0.01; ∗∗∗, p < 0.001; ∗∗∗∗, and p < 0.0001; N.S., no significance.

TRPV3 [2] = target: T1, TRPV3; assay: Calcium imaging (Fluo-4/AM) of TRPV3-expressing HEK293T cells; format: cell-based
Description: as §1
Calcium imaging assays were performed as described previously ([37]). Transiently transfected HEK293 cells seeded on 25 mm coverslips were washed twice with an extracellular solution containing 140 mM NaCl, 5 mM KCl, 2 mM MgCl2, 2 mM CaCl2, 10 mM glucose, and 10 mM Hepes (pH 7.4), followed by incubation in 2 ml of extracellular solution supplemented with 2 μM Fluo-4/AM as a Molecular Probes at room temperature for 60 min. Fluorescence images of HEK293T cells were acquired with a Nikon Eclipse Ti2 microscope with an optiMOS charge-coupled device camera controlled by the Ocular Software ([…]; https://www.photometrics.com/products/ocular).

TRPV3 [3] = target: T1, TRPV3; assay: Single-channel recordings of TRPV3 in the inside-out configuration; format: cell-based; conditions: 1 mM 2-APB alone, −80 mV
Description: as §1
as §2, with “perfusion. Igor Pro versions 5.05 and 9.05 (WaveMetrics; https://www.wavemetrics.com/products/igorpro) were used to analyze the data.” for “perfusion.”

C57BL/6J male mice = assay: Carvacrol-induced AD-like mouse model: skin appearance scores and H&E epidermal thickness; format: in vivo; conditions: score of 0 to 4, topical, 5 days; for erythema score: 2% carvacrol alone or with HCQ 2 mg/ml or DXM 1 mg/ml
Description: (§3) We therefore generated a carvacrol-induced AD mouse model to test the effect of HCQ.
To investigate the effect of HCQ on carvacrol-induced dermatitis in animals, C57BL/6J male mice (aged 6 weeks) were obtained from the Animal Experimental Center of Hangzhou Medical College (Hangzhou, Zhejiang Province). Mice were housed and maintained in an environment with a 12-h light/dark cycle and a controlled temperature of 22.0 ± 2.0 °C. Food and water were accessible ad libitum. All the animal procedures were approved by the Institutional Animal Care & Use Committee of Zhejiang Center of Laboratory Animals (ZJCLA).
(§4) To generate an AD-like mice model, 2% carvacrol (dissolved in 30% ethanol solution) was topically smeared onto the mice dorsum 1 day after hair removal with a depilatory cream (Vetin Depilatory Cream). Mice received a topical administration of an equal volume (200 μl) of 2% carvacrol or in the presence of 2 mg/ml HCQ. […] After the application of carvacrol for 5 days, the external appearance of mice was photographed and then sampled. The external appearance was graded based on three aspects: thickness, erythema/bleeding, and dryness/desquamation, with severity assessed on a score of 0 to 4. The degree of thickness was measured by the thickness of the skin in H&E staining. Skin tissues were either fixed in 4% paraformaldehyde or placed in PBS buffer containing 1% protease inhibitor, facilitating subsequent steps of paraffin embedding or ELISA experiments.
Mice were sacrificed 24 h after the last dose of treatment. Mouse dorsal skin was removed with scissors and forceps before being fixed with 4% paraformaldehyde. Paraffin-embedded tissues were sectioned and stained with H&E. Pictures of stained sections were acquired with a Nikon Eclipse Ti-S microscope with a charge-coupled device camera (DS-Ri2, Nikon).

[4] = system: TNF-α, IL-6, IgE, IL-4 in mouse dorsal skin tissues; assay: Carvacrol-induced AD-like mouse model: inflammatory factors by ELISA; format: in vivo
Description: as §3, §4
Animal skin tissues were placed in PBS buffer containing 1% protease inhibitors, then homogenized, and centrifuged for supernatants. Cytokine concentrations of supernatants (IL-4, IL-6, TNF-α, and IgE) were measured using ELISA kits (Tsingke) according to the manufacturer's instructions. The absorption at 450 nm was measured by a microplate reader (Thermo Multiskan MK3).

[5] = DXM 1 mg/ml topical with 2% carvacrol

## NCCOB(c1ccccc1)c1ccccc1 [2-APB, 2-aminoethoxydiphenylborate]
TRPV3 [1]
  wash-off time constant of TRPV3 current: 4.05 ± 0.73 s
TRPV3 [2]; 1 mM 2-APB alone
  calcium influx, area under the curve (AUC) of 2-APB activation: 22.92 ± 1.44
TRPV3 [3]
  TRPV3 channel open probability (Po): 0.89 ± 0.06
  single-channel conductance: 90.69 ± 2.67 pS

## C[C@@H]1C[C@H]2[C@@H]3CCC4=CC(=O)C=C[C@]4(C)[C@@]3(F)[C@@H](O)C[C@]2(C)[C@@]1(O)C(=O)CO [DXM, dexamethasone]
C57BL/6J male mice
  erythema score: 2.83 ± 0.17
[4]; [5]
  effect on IL-6 and TNF-α: no significant effect
  effect on serum IgE levels: reduces
[4]; mouse tissues, HCQ 2 mg/ml or DXM 1 mg/ml topical with 2% carvacrol
  IL-4 levels compared to the model group: effectively reduced

## Cc1ccc(C(C)C)cc1O [carvacrol]
TRPV3 [1]
  wash-off time constant of TRPV3 current: 1.43 ± 0.38 s
C57BL/6J male mice; 2% carvacrol alone or with HCQ 2 mg/ml
  dry desquamation score: 3.17 ± 0.31
C57BL/6J male mice
  erythema score: 3.67 ± 0.21

## C[C@H](CCC(=O)O)C[C@H](C)C[C@H](C)C(=O)/C=C(\O)[C@H](C)C[C@H](C)C/C=C/[C@@H](C)[C@@H](O)[C@@H](C)[C@@H](O)C[C@@H]1CC[C@@](C)([C@H]2CC[C@@](C)([C@@H](C)O)O2)O1 [ionomycin]
TRPV3 [2]; 10 μM ionomycin
  calcium influx, area under the curve (AUC), positive control: 41.59 ± 1.50
